Patent US12138243B2, “Antiviral use of FABP4 modulating compounds” (CRESCENTA BIOSCIENCES, priority 2021, dated 2024)

These molecules were tested on human coronavirus OC43 (assay: Antiviral activity: human coronavirus OC43 replication in differentiated 3T3-L1 mouse adipocyte cells, viral titers by TCID50 assay in MRC5 cells). Conditions: median fold reduction of virus titers vs vehicle control (DMSO); final compound concentration 10 µM; medium collected 24 hours after infection; differentiated 3T3-L1 adipocytes, 0.05 TCID50 per cell.
Type: cell-based
Protocol: Activity of compounds affecting viral replication and disease was tested against coronavirus replication in differentiated 3T3-L1 mouse adipocyte cells using human coronavirus OC43 as a model virus. 3T3-L1 preadipocytes (ATCC) were routinely cultured in a growth medium composed of DMEM high-glucose (Sigma), 10% FBS (Gibco), 10 U/ml penicillin and 10 μg/ml streptomycin (P/S; Gibco) in a standard cell culture incubator at 37° C. To induce adipogenic differentiation, a confluent layer of 3T3-L1 cells were incubated with the growth medium containing 2 μM rosiglitazone, 1 μM dexamethasone, 500 μM IBMX, and 1 μg/ml insulin (Sigma). Forty-eight (48) hours later (on day 2) and on days 4 and 6, medium of the cells was replaced with fresh medium containing 1 μg/ml insulin. On days 8 and 10, the medium was refreshed with regular growth medium and addition of insulin was omitted. On day 11 or 12, the cells were infected with human coronavirus OC43 (ATCC) at a multiplicity of 0.05 TCID50 (tissue-culture infectious-dose 50) per cell in DMEM containing 2% heat-inactivated FBS and P/S. One hour after infection, medium of the cells were replaced with fresh medium containing either the indicated FABP4 modulating compounds or the vehicle in which the compounds were dissolved (DMSO). The final compound concentration was 10 µM and final concentration of DMSO was 0.1% (v/v). The cells were incubated at 35° C. during the course of infection and compound treatment. Twenty-four hours after infection, medium of the cells was collected, cleared by centrifugation at 2,000g for 5 minutes, and frozen at −80 degrees C. until further processing. The viral titers in the samples were determined by TCID50 assay in MRC5 cells (ATCC) using Reed-Munch method, and median fold reduction of virus titers in compound treated cells compared to vehicle control was calculated.
With CCCCC1CCCc2c(n(Cc3cccc(C(N)=O)c3)c3c(C(=O)O)cccc23)C1 (centres unmarked) [Compound 1, 7-butyl-5-[(3-carbamoylphenyl)methyl]-5H,6H,7H,8H,9H,10H-cyclohepta[b]indole-4-carboxylic acid] the Antiviral activity group was “B (between 10- to 99-fold)”. For CCCCC1CCCc2c(n(Cc3cccc(C#N)c3)c3c(C(=O)O)cccc23)C1 (centres unmarked) [Compound 2, 7-butyl-5-[(3-cyanophenyl)methyl]-5H,6H,7H, 8H,9H,10H-cyclohepta[b]indole-4-carboxylic acid], the Antiviral activity group was “A (reduced virus titers >100-fold)”. For CCCCC1CCCc2c(n(Cc3ccc(C)cc3)c3c(C(=O)O)cccc23)C1 (centres unmarked) [Compound 3, 7-butyl-5-[(4-methylphenyl)methyl]-5H,6H,7H,8H,9H,10H-cyclohepta[b]indole-4-carboxylic acid], the Antiviral activity group was “B (between 10- to 99-fold)”. In the case of CCCCC1CCCc2c(n(Cc3ccccc3C)c3c(C(=O)O)cccc23)C1 (centres unmarked) [Compound 4, 7-butyl-5-[(2-methylphenyl)methyl]-5H,6H,7H,8H,9H,10H-cyclohepta[b]indole-4-carboxylic acid], the Antiviral activity group is reported as “A (reduced virus titers >100-fold)”. In the case of CCCCCCC1CCCc2c(n(Cc3cccc(C(N)=O)c3)c3c(C(=O)O)cccc23)C1 (centres unmarked) [Compound 5, 5-[(3-carbamoylphenyl)methyl]-7-hexyl-5H,6H,7H,8H,9H,10H-cyclohepta[b]indole-4-carboxylic acid], the Antiviral activity group is reported as “B (between 10- to 99-fold)”. For CCCCCCC1CCCc2c(n(Cc3cccc(C#N)c3)c3c(C(=O)O)cccc23)C1 (centres unmarked) [Compound 6, 5-[(3-cyanophenyl)methyl]-7-hexyl-5H,6H,7H,8H,9H,10H-cyclohepta[b]indole-4-carboxylic acid], the Antiviral activity group was “A (reduced virus titers >100-fold)”. CCCCCCC1CCc2c(n(Cc3cccc(C(N)=O)c3)c3c(C(=O)O)cccc23)C1 (centres unmarked) [Compound 7, 9-[(3-carbamoylphenyl)methyl]-2-hexyl-2,3,4,9-tetrahydro-1H-carbazole-8-carboxylic acid] was tested, and the Antiviral activity group was “B (between 10- to 99-fold)”. In the case of CCCCCCC1CCc2c(n(Cc3cccc(C#N)c3)c3c(C(=O)O)cccc23)C1 (centres unmarked) [Compound 8, 9-[(3-cyanophenyl)methyl]-2-hexyl-2,3,4,9-tetrahydro-1H-carbazole-8-carboxylic acid], the Antiviral activity group is reported as “B (between 10- to 99-fold)”. With CCCCCCC1CCc2c(n(Cc3cccnc3)c3c(C(=O)O)cccc23)C1 (centres unmarked) [Compound 9, 2-hexyl-9-[(pyridin-3-yl)methyl]-2,3,4,9-tetrahydro-1H-carbazole-8-carboxylic acid] the Antiviral activity group was “A (reduced virus titers >100-fold)”. With CCCCCCC1CCc2c(n(Cc3ccccc3C)c3c(C(=O)O)cccc23)C1 (centres unmarked) [Compound 10, 2-hexyl-9-[(2-methylphenyl)methyl]-2,3,4,9-tetrahydro-1H-carbazole-8-carboxylic acid] the Antiviral activity group was “A (reduced virus titers >100-fold)”. With CCCCCCC1CCc2c(n(Cc3ccccc3F)c3c(C(=O)O)cccc23)C1 (centres unmarked) [Compound 11, 9-[(2-fluorophenyl)methyl]-2-hexyl-2,3,4,9-tetrahydro-1H-carbazole-8-carboxylic acid] the Antiviral activity group was “A (reduced virus titers >100-fold)”. In the case of CCCCC1CCCc2c1n(Cc1cccc(C(N)=O)c1)c1c(C(=O)O)cccc21 (centres unmarked) [Compound 12, 1-butyl-9-[(3-carbamoylphenyl)methyl]-2,3,4,9-tetrahydro-1H-carbazole-8-carboxylic acid], the Antiviral activity group is reported as “C (between 2- to 9-fold)”. In the case of CCCCC1CCCc2c1n(Cc1cccc(C#N)c1)c1c(C(=O)O)cccc21 (centres unmarked) [Compound 13, 1-butyl-9-[(3-cyanophenyl)methyl]-2,3,4,9-tetrahydro-1H-carbazole-8-carboxylic acid], the Antiviral activity group is reported as “B (between 10- to 99-fold)”. For CCCCC1CCCCc2c1n(Cc1cccc(C(N)=O)c1)c1c(C(=O)O)cccc21 (centres unmarked) [Compound 14, 6-butyl-5-[(3-carbamoylphenyl)methyl]-5H,6H,7H,8H,9H,10H-cyclohepta[b]indole-4-carboxylic acid], the Antiviral activity group was “B (between 10- to 99-fold)”. With CCCCC1CCCCc2c1n(Cc1cccc(C#N)c1)c1c(C(=O)O)cccc21 (centres unmarked) [Compound 15, 6-butyl-5-[(3-cyanophenyl)methyl]-5H,6H,7H,8H,9H,10H-cyclohepta[b]indole-4-carboxylic acid] the Antiviral activity group was “B (between 10- to 99-fold)”. With CCCCC1CCc2c1n(Cc1cccc(C(N)=O)c1)c1c(C(=O)O)cccc21 (centres unmarked) [Compound 16, 3-butyl-4-[(3-carbamoylphenyl)methyl]-1H,2H,3H,4H-cyclopenta[b]indole-5-carboxylic acid] the Antiviral activity group was “C (between 2- to 9-fold)”. CCCCC1Cc2c(n(Cc3cccc(C(N)=O)c3)c3c(C(=O)O)cccc23)C1 (centres unmarked) [Compound 17, 2-butyl-4-[(3-carbamoylphenyl)methyl]-1H,2H,3H,4H-cyclopenta[b]indole-5-carboxylic acid] was tested, and the Antiviral activity group was “C (between 2- to 9-fold)”. In the case of CCCCC1Cc2c(n(Cc3cccc(C#N)c3)c3c(C(=O)O)cccc23)C1 (centres unmarked) [Compound 18, 2-butyl-4-[(3-cyanophenyl)methyl]-1H,2H,3H,4H-cyclopenta[b]indole-5-carboxylic acid], the Antiviral activity group is reported as “C (between 2- to 9-fold)”. For CCCCC1CCCCc2c1c1cccc(C(=O)O)c1n2Cc1cccc(C(N)=O)c1 (centres unmarked) [Compound 19, 10-butyl-5-[(3-carbamoylphenyl)methyl]-5H,6H,7H,8H,9H,10H-cyclohepta[b]indole-4-carboxylic acid], the Antiviral activity group was “C (between 2- to 9-fold)”. CCCCC1CCc2c(c3cccc(C(=O)O)c3n2Cc2cccc(C(N)=O)c2)C1 (centres unmarked) [Compound 20, 3-butyl-9-[(3-carbamoylphenyl)methyl]-2,3,4,9-tetrahydro-1H-carbazole-8-carboxylic acid] was tested, and the Antiviral activity group was “C (between 2- to 9-fold)”. With CCc1c(-c2ccccc2)c(-c2ccccc2)nn1-c1ccccc1-c1cccc(OCC(=O)O)c1 [Compound 21, 2-((2′-(5-Ethyl-3,4-diphenyl-1H-pyrazol-1-yl)-[1,1′-biphenyl]-3-yl)oxy)acetic acid, reference compound] the Antiviral activity group was “C (between 2- to 9-fold)”. In the case of Clc1ccc2nc(N3CCCCC3)c(-c3nnn[nH]3)c(-c3ccccc3)c2c1 [Compound 22, 6-chloro-4-phenyl-2-(piperidin-1-yl)-3-(1H-tetrazol-5-yl)quinoline, reference compound], the Antiviral activity group is reported as “A (reduced virus titers >100-fold)”. In the case of Cc1c(Cl)cccc1OCc1cc(=O)n2nc(-c3ccccc3)nc2[nH]1 [Compound 23, 5-((3-chloro-2-methylphenoxy)methyl)-2-phenyl-[1,2,4]triazolo[1,5-a]pyrimidin-7(4H)-one, reference compound], the Antiviral activity group is reported as “B (between 10- to 99-fold)”.
